Data: patent publication US6780884B2, “Derivating of tryptamine and analogous compounds and pharmaceutical formulations containing them” (Neurim Pharmaceuticals (1991) Ltd., priority 2000, dated 2004)

Columns and labels:
[1] = tested on: Hippocampal Cell Line (HT22); assay: Glutamate-induced oxidative toxicity in hippocampal cell line (HT22): mitochondrial membrane potential by JC-1 fluorescence ratio; assay type: cell-based, mouse; conditions: 10^-7 M compound; for protection against glutamate-mediated damage to the mitochondria (in words) / JC-1 ratio B (+glutamate 5 mM) / JC-1 ratio A (control conditions): HT-22 cells; for protection against glutamate-mediated damage to the mitochondria (in words): 5 mM glutamate; for JC-1 ratio B (+glutamate 5 mM) / JC-1 ratio A (control conditions): 24h, fluorescence ratio 530/590:480/530; for JC-1 ratio A (control conditions): control conditions (no glutamate); for effect on mitochondrial membrane potential of the control cells (in words): HT-22 control cells without glutamate; for JC-1 ratio B/A (%): ratio of +glutamate 5 mM to control conditions
Description: Table 1: Effects of ML Compounds of the Invention on Glutamate-induced Oxidative Toxicity in Hippocampal Cell Line (HT22)
The changes in the mithochondrial membrane potential was assessed using the fluorescent probe 5,5′,6,6′-tetrachloro-1,1′,3,3′-tetraethylbenzimidazolcarbocyanine iodide (JC-1) according to Nuydens et al, 1999, L of Neuroscience; 92, 153-9. Immortalized mouse hipocampal cells (HT-22) were maintained in Dulbecco's modified minimal essential medium (DMEM) supplemented with 10% fetal bovine serum and passaged by trypsinization. Cells (3000 per 96 palte well) were cultured for 24h with DMEM containing 5 mM glutamate and were treated with 10^−7 M of the ML compounds. Cells were then loaded with JC-1 by changing the culture medium to Phosphate buffered saline (PBS) containing 1 g/L glucose and 10 uM JC-1 for 10 mln. at 37° and were washed once. Flouresence was then measured in a plate reader at excitation/emission wavelengths of 480/530 nm and 530/590 nm. The ratio of the fluoresence intensities in the two wavelengths 530/590:480/530 is an indication of the mitochondrial membrane potential. Decrease in this ratio indicates depolarization of the mitochondrial membrane due to damage induced by anoxic or other phathological situations leading to apoptosis of cells.

[2] = tested on: 125I-Melatonin Binding in Membranes of Hamster Brain; assay: 125I-Melatonin binding in membranes of hamster brain (competition); conditions: for inhibition of the specific 125I-melatonin binding: 10^-6M; for % bound at competitor concentration 10-6M / 125I-melatonin bound at competitor concentration 10-6M: competitor 10^-6M; for % bound at competitor concentration 10-6M / % bound at competitor concentration 10-7M: relative to competitor concentration 0; for 125I-melatonin bound at competitor concentration 10-6M / 125I-melatonin bound at competitor concentration 10-7M: 125I-melatonin 250 pM, 37° C., 60 min, radioactivity, unit not given; for % bound at competitor concentration 10-7M / 125I-melatonin bound at competitor concentration 10-7M: competitor 10^-7M
Description: ^125I-Melatonin Binding in Membranes of Hamster Brain
2 whole hamster brains were homogenized with Teflon-glass homogenizer in 10 vol/g tissue of ice cold Tris-HCl buffer (50 mmol/L Tris, 5 mmol/L CaCl2, pH=7.4) and spun at 10,000 g for 10 min. the supernatant were spun at 100,000 g for two hours to yield a crude synaptosomal pellet (P2).
Aliquots of suspended P2 (20 ul) were incubated at 37° C. with ^125I-melatonin (250 pM) for 60 mln. in Tris-Hcl buffer in the absence or presence of 1 nM-100 μM test-substances (ML compounds and melatonin). The binding reaction was terminated by the addition of 4 ml ice cold Tris buffer. Membranes were then collected by vacuum filtration using GF/C glass fiber filters and washed with 3×4 ml ice-cold buffer. The filters containing the bound ^125I-melatonin were assayed for the amount of radioactivity in a γ counter. […] ML-29, ML-30 and ML-31 (10^−6M) inhibited (≧20%) the specific ^125I-melatonin binding. ML-27, ML-28 and ML-23 reduced the specific ^125I-melatonin binding to a lesser extent (˜13%).

SMILES: Cc1ccc2[nH]cc(CCNc3ccc([N+](=O)[O-])cc3[N+](=O)[O-])c2c1 [ML-28, N-(2,4-dinitrophenyl)-5-methyltryptamine]
- protection against glutamate-mediated damage to the mitochondria (in words) [1]: did not protect
- JC-1 ratio B (+glutamate 5 mM) [1]: 2.28
- JC-1 ratio A (control conditions) [1]: 2.77
- effect on mitochondrial membrane potential of the control cells (in words) [1]: elevated
- JC-1 ratio B/A (%) [1]: 82%
- inhibition of the specific 125I-melatonin binding [2]: ~13%
- % bound at competitor concentration 10-6M [2]: 87%
- 125I-melatonin bound at competitor concentration 10-6M [2]: 365
- % bound at competitor concentration 10-7M [2]: 91%
- 125I-melatonin bound at competitor concentration 10-7M [2]: 381

SMILES: COc1ccc2[nH]cc(CCNC(C)=O)c2c1 [Melatonin, reference compound]
- protection against glutamate-mediated damage to the mitochondria (in words) [1]: significantly protected
- JC-1 ratio B (+glutamate 5 mM) [1]: 2.44
- JC-1 ratio A (control conditions) [1]: 2.48
- JC-1 ratio B/A (%) [1]: 98%
- inhibition of the specific 125I-melatonin binding [2]: 20%
- % bound at competitor concentration 10-6M [2]: 79%
- 125I-melatonin bound at competitor concentration 10-6M [2]: 335
- % bound at competitor concentration 10-7M [2]: 89%
- 125I-melatonin bound at competitor concentration 10-7M [2]: 377

SMILES: COc1ccc2[nH]cc(CCNc3cc(NC(C)=O)c([N+](=O)[O-])cc3[N+](=O)[O-])c2c1 [ML-30, 2,4-dinitro-5-(5′-methoxytryptyl)aminoacetanilide]
- protection against glutamate-mediated damage to the mitochondria (in words) [1]: significantly protected
- JC-1 ratio B (+glutamate 5 mM) [1]: 2.13
- JC-1 ratio A (control conditions) [1]: 1.83
- effect on mitochondrial membrane potential of the control cells (in words) [1]: decreased
- JC-1 ratio B/A (%) [1]: 116%
- % bound at competitor concentration 10-6M [2]: 80%
- 125I-melatonin bound at competitor concentration 10-6M [2]: 409
- % bound at competitor concentration 10-7M [2]: 96%
- 125I-melatonin bound at competitor concentration 10-7M [2]: 488

SMILES: COc1ccc2[nH]cc(CCNc3ccc([N+](=O)[O-])cc3[N+](=O)[O-])c2c1 [ML-23, N-(2,4-dinitrophenyl)-5-methoxytryptamine, reference compound]
- protection against glutamate-mediated damage to the mitochondria (in words) [1]: significantly protected
- JC-1 ratio B (+glutamate 5 mM) [1]: 1.97
- JC-1 ratio A (control conditions) [1]: 2.19
- effect on mitochondrial membrane potential of the control cells (in words) [1]: did not decrease
- JC-1 ratio B/A (%) [1]: 90%
- inhibition of the specific 125I-melatonin binding [2]: ~13%
- % bound at competitor concentration 10-6M [2]: 87%
- 125I-melatonin bound at competitor concentration 10-6M [2]: 403
- % bound at competitor concentration 10-7M [2]: 94%
- 125I-melatonin bound at competitor concentration 10-7M [2]: 435

SMILES: O=[N+]([O-])c1ccc(NCCc2c[nH]c3ccccc23)c([N+](=O)[O-])c1 [ML-25, N-(2,4-dinitrophenyl)tryptamine]
- protection against glutamate-mediated damage to the mitochondria (in words) [1]: significantly protected
- JC-1 ratio B (+glutamate 5 mM) [1]: 2.01
- JC-1 ratio A (control conditions) [1]: 2.21
- effect on mitochondrial membrane potential of the control cells (in words) [1]: did not decrease
- JC-1 ratio B/A (%) [1]: 91%
- % bound at competitor concentration 10-6M [2]: 91%
- 125I-melatonin bound at competitor concentration 10-6M [2]: 390
- % bound at competitor concentration 10-7M [2]: 92%
- 125I-melatonin bound at competitor concentration 10-7M [2]: 396

SMILES: CC(=O)Nc1cc(NCCc2c[nH]c3ccccc23)c([N+](=O)[O-])cc1[N+](=O)[O-] [ML-26, 2,4-dinitro-5-tryptylaminoacetanilide]
- protection against glutamate-mediated damage to the mitochondria (in words) [1]: significantly protected
- JC-1 ratio B (+glutamate 5 mM) [1]: 2.11
- JC-1 ratio A (control conditions) [1]: 2.16
- effect on mitochondrial membrane potential of the control cells (in words) [1]: did not decrease
- JC-1 ratio B/A (%) [1]: 98%
- % bound at competitor concentration 10-6M [2]: 99%
- 125I-melatonin bound at competitor concentration 10-6M [2]: 411
- % bound at competitor concentration 10-7M [2]: 104%
- 125I-melatonin bound at competitor concentration 10-7M [2]: 435

SMILES: Nc1cc(NCCc2c[nH]c3ccccc23)c([N+](=O)[O-])cc1[N+](=O)[O-] [ML-27, N-(2,4-dinitro-5-aminophenyl)tryptamine]
- protection against glutamate-mediated damage to the mitochondria (in words) [1]: significantly protected
- JC-1 ratio B (+glutamate 5 mM) [1]: 1.83
- JC-1 ratio A (control conditions) [1]: 1.80
- effect on mitochondrial membrane potential of the control cells (in words) [1]: decreased
- JC-1 ratio B/A (%) [1]: 102%
- inhibition of the specific 125I-melatonin binding [2]: ~13%
- % bound at competitor concentration 10-6M [2]: 87%
- 125I-melatonin bound at competitor concentration 10-6M [2]: 426
- % bound at competitor concentration 10-7M [2]: 92%
- 125I-melatonin bound at competitor concentration 10-7M [2]: 448

SMILES: Cc1ccc2[nH]cc(CCNc3cc(N)c([N+](=O)[O-])cc3[N+](=O)[O-])c2c1 [ML-31, N-(2,4-dinitro-5-aminophenyl)-5′-methyltryptamine]
- protection against glutamate-mediated damage to the mitochondria (in words) [1]: without providing protection
- JC-1 ratio B (+glutamate 5 mM) [1]: 1.57
- JC-1 ratio A (control conditions) [1]: 1.93
- effect on mitochondrial membrane potential of the control cells (in words) [1]: decreased
- JC-1 ratio B/A (%) [1]: 81%
- % bound at competitor concentration 10-6M [2]: 72%
- 125I-melatonin bound at competitor concentration 10-6M [2]: 334
- % bound at competitor concentration 10-7M [2]: 94%
- 125I-melatonin bound at competitor concentration 10-7M [2]: 438

SMILES: CC(=O)Nc1cc(NCCc2c[nH]c3ccc(C)cc23)c([N+](=O)[O-])cc1[N+](=O)[O-] [ML-29, 2,4-dinitro-5-(5′-methyltryptyl)aminoacetanilide]
- protection against glutamate-mediated damage to the mitochondria (in words) [1]: without providing protection
- JC-1 ratio B (+glutamate 5 mM) [1]: 1.79
- JC-1 ratio A (control conditions) [1]: 2.28
- effect on mitochondrial membrane potential of the control cells (in words) [1]: decreased
- JC-1 ratio B/A (%) [1]: 78%
- % bound at competitor concentration 10-6M [2]: 80%
- 125I-melatonin bound at competitor concentration 10-6M [2]: 358
- % bound at competitor concentration 10-7M [2]: 90%
- 125I-melatonin bound at competitor concentration 10-7M [2]: 404

SMILES: COc1ccc2[nH]cc(CCNc3cc(N)c([N+](=O)[O-])cc3[N+](=O)[O-])c2c1 [ML-32, N-(2,4-dinitro-5-aminophenyl)-5′-methoxytryptamine]
- protection against glutamate-mediated damage to the mitochondria (in words) [1]: without providing protection
- JC-1 ratio B (+glutamate 5 mM) [1]: 1.76
- JC-1 ratio A (control conditions) [1]: 2.15
- effect on mitochondrial membrane potential of the control cells (in words) [1]: decreased
- JC-1 ratio B/A (%) [1]: 82%
- % bound at competitor concentration 10-6M [2]: 93%
- 125I-melatonin bound at competitor concentration 10-6M [2]: 419
- % bound at competitor concentration 10-7M [2]: 90%
- 125I-melatonin bound at competitor concentration 10-7M [2]: 408
